# Legend:
# [1] = system: human anagen VI scalp HFs (healthy female donors); assay: Healthy female donor hair follicle organ culture (ex vivo model), Example 7; type: cell-based; details: for hair shaft production: vs vehicle
# Procedure: 12-44 full-length frontotemporal hair follicles (HF) were obtained from four healthy human female donors >50 years old. […] Donor 2:29; Donor 3:44; Donor 4:32). After microdissection from skin as described in the art (Edelkamp et al., Methods Mol Biol, 2020, 2154:105-119; and Langan et al., Exp Dermatol, 2015 December; 24(12):903-1), HFs were placed in adequate culture medium and allowed a 24 h rest period to allow them to recover from the trauma of microdissection. Test substance (either vehicle (0.3% EtOH) or E4 at concentrations of 30 μM, 3 μM or 300 nM) was added to the medium at the end of the 24 h. Total culturing time was 5-9 days depending on the stage of the HFs in the vehicle group. The experimental design for a 6-days HF organ culture experiment is depicted in FIG. 9.
# This model allows to assess if E4 treatment is able to prolong anagen and/or to delay catagen initiation in healthy female subjects. Clinically, hair loss is associated with a reduction of HFs in anagen or with a shortening of anagen duration. Promoting anagen might thus limit hair loss. The following parameters were investigated:
# To determine the HF length, each HF was measured from the end of the bulb connective tissue sheath to the end of the distal outer root sheath (ORS), using a digital light microscope at 50× magnification (VHX 900 Keyence Corporation, Osaka, Japan) and the affiliated software (Edelkamp et al., Methods Mol Biol, 2020, 2154:105-119; and Langan et al., Exp Dermatol, 2015 December; 24(12):903-1). Measurements were obtained at baseline, after 24 h rest period and subsequently every 24-48 h during the entire duration of the experiment. Elongation is expressed as millimeters of growth and/or as percentage elongation from the baseline measurement.
# Hair cycle staging and calculation of hair cycle score is indicative of hair cycle progression and anagen-catagen transition (Langan et al., Exp Dermatol, 2015). Hair cycle staging and hair cycle scoring was performed at the end of the culture. The hair cycle stage of each HF was determined according to several established macroscopic and microscopic parameters (Langan et al Exp Dermatol, 2015). Microscopic hair cycle staging was determined using Ki-67/TUNEL immunohistology and Masson-Fontana histochemistry. Hair cycle staging was analyzed by calculating the percentage of HFs in each hair cycle stage. Hair cycle score was determined by giving an arbitrary score to each hair cycle stage as following: anagen: 100, early catagen: 200, mid catagen: 300, late catagen: 400, dystrophic 500.
# Germinative hair matrix keratinocytes proliferate mostly during anagen. […] Apoptosis of hair matrix keratinocytes is used as an additional indicator of anagen/catagen transition.
# Proliferation was assessed by quantification of the percentage of hair matrix keratinocytes in a clearly specified area (germinative hair matrix keratinocytes, below the Auber's line) that were positive for the proliferation marker Ki67, whereas apoptosis was assessed using TUNEL (TdT-mediated dUTP-biotin nick-end labelling) immunofluorescence in the same keratinocyte population (below the Auber's line) and in the precortical hair matrix keratincoytes (above the Auber's line) (Langan et al., Exp Dermatol 2015) (FIG. 11).
# Alkaline phosphatase is an indicator of DP inductivity (Yang, J Dermatol Sci, 2010 January; 57(1):2-11). Alkaline phosphatase in situ activity was measured in the DP.
# Versican, a large chondroitin sulfate proteoglycan molecule, is expressed in DP in anagen HFs and diminishes in catagen HFs and its expression correlates with hair inductive properties (Yang, J Dermatol Sci 2010). Versican intensity was analyzed in the DP.
# CD34 is a marker expressed by the progeny of HF bulge stem cells. It is expressed in the most external layer of the outer root sheet (ORS) below the isthmus (sub-bulge to suprabulbar regions) (Purba et al., BioEssays, 2014 May; 36(5):513-25). […]
# [2] = system: occipital hair follicles (healthy donor); assay: Healthy donor hair follicle organ culture (ex vivo model), Example 8; type: cell-based, human; details: for K15 expression in the suprabulbar outer root sheath / number of cells (K15) in the suprabulbar outer root sheath: 300 nM; for density of cells in the dermal cup of anagen HFs / density of cells in the dermal papilla / density of cells in the dermal papilla stalk / hair matrix keratinocyte proliferation / total number of cells in the dermal cup of anagen HFs / total number of cells in the dermal papilla / total number of cells in the dermal papilla stalk: 3 μM
# Procedure: In brief, 24 full-length occipital hair follicles (HF) were obtained from one healthy donor. […] Test substance (either vehicle (0.03% EtOH), E2 at concentration of 300 nM or E4 at concentrations of 3 μM or 300 nM) was added to the medium at the end of the 24 h. Total culturing time was 5 days depending on the stage of the HFs in the vehicle group. The experimental design is depicted in FIG. 23.
# [3] = 300 nM and 30 μM, tendentially vs vehicle
# [4] = 300 nM, 3 μM, 30 μM, listed as Estetrol
# [5] = 3 μM, significantly vs vehicle, listed as estetrol
# [6] = 300 nM and 3 μM, listed as Estetrol
compound,measurement,setting,value
"C[C@]12CC[C@@H]3c4ccc(O)cc4CC[C@H]3[C@@H]1[C@@H](O)[C@@H](O)[C@@H]2O [Formulation E4, 1,3,5 (10)-estratrien-3,15alpha,16alpha,17beta-tetrol]",total number of cells in the DP stalk,[1]; 300 nM and 3 μM,significantly reduced the total number of cells in the DP stalk
same,hair matrix keratinocytes proliferation (Ki-67),[1]; [3],increased hair matrix keratinocytes proliferation
same,microscopic hair cycle staging: anagen,[1]; [3],prolonged anagen
same,"percentage of CD34 positive cells, suprabulbar ORS",[1]; [3],increased the percentage of CD34 positive cells
same,microscopic hair cycle staging: anagen,"[1]; 300 nM and 30 μM, tendentially vs vehicle, listed as estetrol",maintain longer HFs in anagen
same,density of cells in the inductive dermal cup,"[1]; 300 nM, 3 μM, 30 μM",no significant impact on the density of cells in the inductive dermal cup
same,hair matrix keratinocytes apoptosis (TUNEL),"[1]; 300 nM, 3 μM, 30 μM",without affecting hair matrix keratinocytes apoptosis
same,"percentage of K15 positive cells, suprabulbar ORS","[1]; 300 nM, 3 μM, 30 μM",did not have any effect on the percentage of K15 positive cells
same,hair matrix keratinocytes apoptosis (TUNEL),[1]; [4],apoptosis was not affected
same,hair shaft production,"[1]; 300 nM, 3 μM, 30 μM",did not modify hair shaft production
same,hair shaft production,[1]; [4],does not impact hair shaft production
same,"proliferation of K15 positive cells (Ki-67), suprabulbar ORS","[1]; 300 nM, significantly vs vehicle",decreased their proliferation
same,"percentage of K15 positive cells, bulge basal layer",[1]; 3 μM,significantly decreased the percentage of K15 positive cells
same,"proliferation of K15 positive cells (Ki-67), bulge basal layer","[1]; 3 μM and 300 nM, tendentially vs vehicle",increased their proliferation
same,hair matrix keratinocytes proliferation (Ki-67),"[1]; 3 μM, significantly vs vehicle",increased hair matrix keratinocytes proliferation
same,microscopic hair cycle staging: anagen,"[1]; 3 μM, significantly vs vehicle",prolonged anagen
same,"percentage of CD34 positive cells, suprabulbar ORS","[1]; 3 μM, significantly vs vehicle",increased the percentage of CD34 positive cells
same,hair matrix keratinocytes proliferation (Ki-67),[1]; [5],increases hair matrix keratinocytes proliferation
same,microscopic hair cycle staging: anagen,[1]; [5],maintain longer HFs in anagen
same,"proliferation of K15 positive cells (Ki-67), suprabulbar ORS","[1]; 3 μM, tendentially vs vehicle",decreased their proliferation
same,"proliferation of K15 positive cells (Ki-67), bulge basal layer","[1]; 30 μM, significantly vs vehicle",increased their proliferation
same,density of cells in the DP stalk,[1]; all concentrations,tendentially decreased the density of cells
same,alkaline phosphatase activity in DP cells,[1]; all tested concentrations,tendentially increased
same,density of cells in the DP,[1]; all tested concentrations,did not strikingly affect the density of cells in the DP
same,versican expression in DP cells,[1]; all tested concentrations,tendentially increased versican expression
same,K15 expression in the suprabulbar outer root sheath,[2],tendentially increased
same,number of cells (K15) in the suprabulbar outer root sheath,[2],tendentially increased
same,area of the dermal papilla,[2]; 300 nM and 3 μM,increased
same,hair shaft production (reduction vs vehicle),[2]; 300 nM and 3 μM,tendentially
same,microscopic hair cycle: anagen,[2]; 300 nM and 3 μM,maintained HFs in anagen
same,number of CD34+ cells in the suprabulbar outer root sheath,[2]; 300 nM and 3 μM,decreased
same,area of the dermal papilla,[2]; [6],increases the area
same,microscopic hair cycle: anagen,[2]; [6],maintain hair follicles in anagen
same,number of CD34+ cells in the suprabulbar outer root sheath,[2]; [6],decreases the number of CD34+ cells
same,K15 expression in the suprabulbar outer root sheath,[2]; listed as estetrol,tendentially increase K15 expression
same,number of cells (K15) in the suprabulbar outer root sheath,[2]; listed as estetrol,tendentially increase
same,density of cells in the dermal cup of anagen HFs,[2],significantly decreased
same,density of cells in the dermal papilla,[2],tendentially decreased
same,density of cells in the dermal papilla stalk,[2],decreased
same,hair matrix keratinocyte proliferation,[2],tendentially increased
same,total number of cells in the dermal cup of anagen HFs,[2],significantly decreased
same,total number of cells in the dermal papilla,[2],tendentially decreased
same,total number of cells in the dermal papilla stalk,[2],decreased
same,microscopic hair cycle: anagen maintenance,[2]; 3 μM compared with 300 nM,even more prominently
same,density of cells in the dermal cup of anagen HFs,[2]; listed as Estetrol,significantly decreases
same,density of cells in the dermal papilla,[2]; listed as Estetrol,tendentially decreases
same,density of cells in the dermal papilla stalk,[2]; listed as Estetrol,decreases the density of cells in the dermal papilla stalk
same,hair matrix keratinocyte proliferation,[2]; listed as Estetrol,increased
same,total number of cells in the dermal cup of anagen HFs,[2]; listed as Estetrol,significantly decreases
same,total number of cells in the dermal papilla,[2]; listed as Estetrol,tendentially decreases
same,total number of cells in the dermal papilla stalk,[2]; listed as Estetrol,tendentially
